These results are taken from patent publication US8906383B2, “T cell receptor having binding affinity for a peptide-MHC complex and uses thereof” (King's College London, priority 2007, dated 2014).

Experiment [1] relates to CD8 T cells from HLA-A2+ type 1 diabetic patients. Nature of the experiment: Interferon-gamma cytokine ELISPOT with patient PBMCs. The experiment is classed as cell-based, human. To be noted: PBMCs of patients with new-onset type 1 diabetes and HLA-A2; peptide 10 μM; FIG. 8a. The method, then: The following ELISPOT assays were carried out using the methods substantially as described in Arif et al., (2004) J Clin Invest 113: 451-63.
Fresh peripheral blood mononuclear cells (PBMCs) in RPMI 1640 supplemented with antibiotics (TC medium; all Life Technologies) and 10% human AB serum (Harlan SeraLab, Leicestershire, UK) were dispensed into 48-well plates at a density of 2×10^6 cells in 0.5 ml supplemented with peptide to a final concentration of 10 μM and incubated at 37° C., 5% CO2, tilted by 5°. Control wells comprised TC medium containing an equivalent concentration of peptide diluent alone (DMSO). On day +1, 0.5 ml pre-warmed TC medium/10% AB was added and on day +2, non-adherent cells were re-suspended using pre-warmed TC medium/2% AB, washed, brought to a concentration of 1×10^6 cells/300 μl and 100 μl dispensed in triplicate into wells of 96-well ELISA plates (Nunc Maxisorp, Merck, Poole, UK) pre-blocked with 1% BSA in PBS and pre-coated with monoclonal anti-IFN-γ capture antibody (U-Cytech, Utrecht, NL). After capture at 37° C., 5% CO2 for 7 hours, cells were lysed in ice cold water, plates washed in PBS/Tween 20 and spots developed according to the manufacturer's instructions. Plates were dried and spots of 80-120 μm counted in a BioReader 3000 (BioSys, Karben, Germany). […]

The test system of a further experiment is soluble HLA-A2 molecules. To be noted: synthetic peptide; Chang et al., (2003) Tissue Antigens 62: 408-417; cited from earlier work.

Regarding ALWGPDPAAA [PPI15-24], the “CD8 T cell reactivity to PPI peptide by interferon-gamma ELISPOT” value in experiment [1] is reported as “demonstrate the presence of CD8 T cells specific for”. The “Capability of being loaded in-vitro by soluble HLA-A2” value in the experiment with soluble HLA-A2 molecules was “capable of being loaded in-vitro by soluble HLA-A2 molecules”. With WGPDPAAA [PPI17-24], the “CD8 T cell reactivity to PPI peptide by interferon-gamma ELISPOT” value in experiment [1] is reported as “demonstrate the presence of CD8 T cells specific for”.
